Measurements: patent US11261170B2, “Aromatic compound, pharmaceutical composition and use thereof” (Sichuan Kelun-Biotech Biopharmaceutical Co., Ltd., priority 2017, dated 2022)

What was measured:
[1] = Cytotoxicity test on HepG2 cells (CellTiter Glo); type: cell-based; settings: human, incubated for 3 days
Protocol: (§1) Test Example 4: Cytotoxicity Test of Compound on HepG2 & Hek293 Cells
(§2) Cells: human hepatocyte HepG2, purchased from ATCC; Human embryonic kidney cells HEK293: purchased from ATCC;
(§3) Assay reagent: CellTiter Glo® Luminescent Cell Viability Assay, purchased from Promega.
(§4) HepG2 and HEK293 cells were incubated in DMEM/F12 medium containing 10% of fetal bovine serum respectively. A proper amount of cells were plated into a 96-well plate, the plate was placed in an incubator overnight, and the culture medium was removed, and replaced with a complete culture medium containing the compound of the application, and incubated for 3 days. On day 4, an assay reagent CellTiter Glo was added to each well, and the relative luminous unit (RLU) of each well was determined by chemiluminescence. CC50 values of the compound of the application to HepG2 and HEK293 cells were calculated by GraphPad software, and the results were shown in Table 3.

[2] = biological target: PPARα (Homo sapiens (Human), UniProt Q07869); test: Activation of transient transfected PPAR α in HEK293 cells (GAL4-hPPAR α luciferase assay); type: cell-based; settings: HEK293 transfected with GAL4-hPPAR α, 24 h incubation
PPARα, sequence (Q07869 whole entry, looked up, the tested form may be a part): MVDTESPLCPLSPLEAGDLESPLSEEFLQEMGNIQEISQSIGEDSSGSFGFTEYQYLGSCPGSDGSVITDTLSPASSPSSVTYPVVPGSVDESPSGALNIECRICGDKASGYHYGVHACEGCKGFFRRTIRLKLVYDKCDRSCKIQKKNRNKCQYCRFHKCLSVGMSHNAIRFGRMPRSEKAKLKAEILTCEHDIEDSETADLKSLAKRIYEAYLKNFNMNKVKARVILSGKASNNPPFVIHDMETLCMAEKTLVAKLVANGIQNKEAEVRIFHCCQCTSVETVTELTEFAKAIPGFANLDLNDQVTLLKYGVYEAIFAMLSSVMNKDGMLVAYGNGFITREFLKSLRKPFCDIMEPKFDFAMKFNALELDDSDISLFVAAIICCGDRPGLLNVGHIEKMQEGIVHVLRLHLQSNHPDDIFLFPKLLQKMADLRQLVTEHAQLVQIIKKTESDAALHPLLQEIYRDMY
Protocol: Test example 1: Experiment of the compounds on activation of transient transfected PPAR α in HEK293 cells
Plasmid: pcDNA3.1(+)-GAL4-hPPAR α, customized by Nanjing Kebai Biotechnology Co., Ltd.
(§5) Liposome: PGL4.35, customized by Nanjing Kebai Biotechnology Co., Ltd.
(§6) Cell: human embryonic kidney cells HEK293, purchased from ATCC.
(§7) Transfection reagent: Lipofectamine Reagent 3000 purchased from Invitrogen.
(§8) Assay kit: Bright Glo™ Luciferase Assay System purchased from Promega.
(§9) HEK293 cells were incubated in DMEM medium containing 10% of fetal bovine serum at 37° C. in the presence of 5% of CO2. 3×10^5/ml cells were plated in each well of the 6-well plate. When the cell convergence degree reached 50%-80%, 5 μg of liposome PGL4.35 and 5 μg of expression plasmid pcDNA3.1(+)-GAL4-hPPAR α were added to transfect the cells for 24 h and then the cells were collected. The transfected cells were plated in the 96-well plate and the compounds of the application in different concentrations were added, incubated for 24 h, and Bright Glo™ Luciferase Assay System reagent was added for luciferase assay.

[3] = Cytotoxicity test on HEK293 cells (CellTiter Glo); type: cell-based; settings: human, incubated for 3 days
Protocol: as §1, §2, §3, §4

[4] = biological target: hERG potassium ion channel (Homo sapiens (Human), UniProt Q12809); test: Predictor hERG fluorescence polarization; type: binding
hERG potassium ion channel, sequence (Q12809 whole entry): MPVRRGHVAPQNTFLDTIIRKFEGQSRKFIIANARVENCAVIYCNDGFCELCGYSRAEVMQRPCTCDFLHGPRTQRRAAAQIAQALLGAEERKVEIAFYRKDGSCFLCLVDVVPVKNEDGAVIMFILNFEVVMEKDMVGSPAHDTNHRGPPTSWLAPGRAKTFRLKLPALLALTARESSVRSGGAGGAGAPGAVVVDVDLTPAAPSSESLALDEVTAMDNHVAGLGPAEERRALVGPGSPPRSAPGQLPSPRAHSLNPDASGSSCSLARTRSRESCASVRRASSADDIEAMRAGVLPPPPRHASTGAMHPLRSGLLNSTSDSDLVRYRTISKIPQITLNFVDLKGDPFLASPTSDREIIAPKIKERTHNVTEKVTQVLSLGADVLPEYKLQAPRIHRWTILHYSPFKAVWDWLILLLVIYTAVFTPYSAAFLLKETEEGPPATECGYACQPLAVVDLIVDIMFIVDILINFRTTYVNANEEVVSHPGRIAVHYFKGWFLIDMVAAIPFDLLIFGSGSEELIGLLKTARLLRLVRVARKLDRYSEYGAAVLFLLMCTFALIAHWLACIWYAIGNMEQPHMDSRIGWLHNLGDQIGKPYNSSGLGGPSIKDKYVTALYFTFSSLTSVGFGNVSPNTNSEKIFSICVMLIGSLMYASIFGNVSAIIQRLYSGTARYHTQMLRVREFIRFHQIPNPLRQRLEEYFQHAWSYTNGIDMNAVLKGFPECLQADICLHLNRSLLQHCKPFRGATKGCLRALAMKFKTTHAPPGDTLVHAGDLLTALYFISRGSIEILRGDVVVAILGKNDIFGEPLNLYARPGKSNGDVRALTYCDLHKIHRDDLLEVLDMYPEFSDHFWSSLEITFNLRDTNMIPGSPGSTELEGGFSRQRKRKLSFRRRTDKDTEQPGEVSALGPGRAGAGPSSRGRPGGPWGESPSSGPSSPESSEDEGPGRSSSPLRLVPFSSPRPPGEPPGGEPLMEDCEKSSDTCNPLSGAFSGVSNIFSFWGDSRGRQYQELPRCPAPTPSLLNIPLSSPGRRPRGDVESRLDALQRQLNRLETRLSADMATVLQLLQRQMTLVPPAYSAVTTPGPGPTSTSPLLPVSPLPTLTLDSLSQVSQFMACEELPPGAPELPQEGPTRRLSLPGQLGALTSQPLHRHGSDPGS
Protocol: Test Example 5: In Vitro Safety Test
The effect of the compound on hERG potassium ion channel was tested by Predictor™ hERG fluorescence polarization.

[5] = biological target: PPARδ (Homo sapiens (Human), UniProt Q03181); test: Activation of transient transfected PPAR δ in HEK293 cells (GAL4-hPPAR δ luciferase assay); type: cell-based; settings: HEK293 transfected with GAL4-hPPAR δ, 24 h incubation
PPARδ, sequence (Q03181 whole entry, looked up, the tested form may be a part): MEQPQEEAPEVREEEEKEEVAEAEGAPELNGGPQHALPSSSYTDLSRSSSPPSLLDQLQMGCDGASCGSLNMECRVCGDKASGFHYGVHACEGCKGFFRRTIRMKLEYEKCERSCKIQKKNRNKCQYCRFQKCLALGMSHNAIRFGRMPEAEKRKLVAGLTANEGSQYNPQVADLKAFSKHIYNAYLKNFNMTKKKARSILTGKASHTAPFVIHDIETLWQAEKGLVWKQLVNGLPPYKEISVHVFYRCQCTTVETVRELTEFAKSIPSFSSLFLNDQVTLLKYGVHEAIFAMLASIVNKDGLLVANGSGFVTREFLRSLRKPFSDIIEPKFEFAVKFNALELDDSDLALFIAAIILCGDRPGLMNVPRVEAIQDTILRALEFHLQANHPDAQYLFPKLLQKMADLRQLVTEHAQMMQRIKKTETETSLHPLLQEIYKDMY
Protocol: Test Example 2: Experiment of the Compounds on Activation of Transient Transfected PPAR δ in HEK293 Cells
Plasmid: pcDNA3.1(+)-GAL4-hPPAR δ, customized by Nanjing Kebai Biotechnology Co., Ltd.
as §5, §6, §7, §8
as §9, with “δ” for “α”, “Then, the” for “The”, “reagent” for “reagent was added”, “assay was added.” for “assay.”

[6] = system: MCD model of non-alcoholic steatohepatitis; test: In vivo efficacy study in the MCD model of non-alcoholic steatohepatitis; set-up: species or system C57 Mice; settings: MCD diet mice
Protocol: Test Example 6: In Vivo Efficacy Study of Compound in the MCD Model of Non-Alcoholic Steatohepatitis In this example, comparative test between compound GFT505 from WO2018133705A1 and compounds of the invention was conducted, so as to show the advantages of compounds of the invention. C57 Mice at 8-10 weeks of age (purchased from Vital River Laboratories) were body-weight matched and randomly divided into groups of normal, model, control and test. Mice in normal group were fed with standard chow for 9 weeks. Mice in model group, control group and test group were fed with MCD diet (Methionine-Choline Deficient Diet, Research Diets) for 9 weeks to induce NASH Model. During weeks 5-9 of the 9-week course of MCD diet, the control group and the test group were treated with GFT505 and TM4 of the invention, respectively, and the normal group and model group were treated with 0.5% MC. The dosage regimen was specified in table 5. [table] Animals were dissected after administration on day 35, livers were collected for H&E staining (hematoxylin-eosin staining) and sirius red staining. And then NAFLD activity score, including liver steatosis score, inflammation score and ballooning score, and liver fibrosis score were conducted.

[7] = 1 mg/kg intragastric once every day for 35 days
[8] = 1 mg/kg, 35 days, result in words

SMILES: Cc1cc(/C=C/C(=O)c2cc3ccccc3nc2C)cc(C)c1OC(C)(C)C(=O)O [Example 7, (E)-2-(4-(3-(2-methylquinolin-3-yl)-3-oxo-1-propen-1-yl)-2,6-dimethylphenoxy)-2-methylpropionic acid]
- CC50 at 3 days [1]: > 10000 nM
- EC50 [2]: 752 nM
- CC50 at 3 days [3]: > 10000 nM

SMILES: Cc1cc(/C=C/C(=O)c2cc3ccccc3nc2N(C)C)cc(C)c1OC(C)(C)C(=O)O [Example 9, (E)-2-(4-(3-(2-dimethylaminoquinolin-3-yl)-3-oxo-1-propen-1-yl)-2,6-dimethylphenoxy)-2-methylpropionic acid]
- IC50 [4]: > 10000 nM

SMILES: Cc1cc(/C=C/C(=O)c2cc3ccccc3s2)cc(C)c1OC(C)(C)C(=O)O [Example 2, (E)-2-(4-(3-(benzo [b]thien-2-yl)-3-oxo-1-propen-1-yl)-2,6-dimethylphenoxy)-2-methylpropionic acid]
- CC50 at 3 days [1]: ~7270 nM
- EC50 [5]: 6130 nM
- EC50 [2]: 1210 nM
- IC50 [4]: 8240 nM
- CC50 at 3 days [3]: ~8140 nM

SMILES: Cc1cc(/C=C/C(=O)c2cc3ccccc3nc2N2CCCC2)cc(C)c1OC(C)(C)C(=O)O [Example 10, (E)-2-(4-(3-(2-(1-pyrrolidinyl)quinolin-3-yl)-3-oxo-1-propen-1-yl)-2,6-dimethylphenoxy)-2-methylpropionic acid]
- EC50 [5]: 2510 nM
- EC50 [2]: 77 nM
- IC50 [4]: > 10000 nM

SMILES: Cc1cc(/C=C/C(=O)c2cc3ccccc3nc2C(F)(F)F)cc(C)c1OC(C)(C)C(=O)O [Example 8, (E)-2-(4-(3-(2-trifluoromethylquinolin-3-yl)-3-oxo-1-propen-1-yl)-2,6-dimethylphenoxy)-2-methylpropionic acid]
- CC50 at 3 days [1]: > 10000 nM
- EC50 [2]: 692 nM
- IC50 [4]: > 10000 nM
- CC50 at 3 days [3]: > 10000 nM

SMILES: CSc1ccc(C(=O)/C=C/c2cc(C)c(OC(C)(C)C(=O)O)c(C)c2)cc1 [GFT505, reference compound]
- Liver fibrosis score (Mean ± SD) [6, 7]: 1.22 ± 0.44
- NAFLD activity score (Mean ± SD) [6, 7]: 3.33 ± 0.87
- Reduction of NAFLD activity score compared with model group [6, 8]: not statistically significant
- Reduction of liver fibrosis score compared with model group [6, 8]: not statistically significant

SMILES: Cc1cc(/C=C/C(=O)c2cc3ccccc3nc2Cl)cc(C)c1OC(C)(C)C(=O)O [Example 4, (E)-2-(4-(3-(2-chloroquinolin-3-yl)-3-oxo-1-propen-1-yl)-2,6-dimethylphenoxy)-2-methyl propionic acid]
- CC50 at 3 days [1]: 11300 nM
- EC50 [5]: 3440 nM
- EC50 [2]: 278 nM
- IC50 [4]: > 10000 nM
- CC50 at 3 days [3]: 13600 nM

SMILES: COc1ccc2cc(C(=O)/C=C/c3cc(C)c(OC(C)(C)C(=O)O)c(C)c3)c(OC)nc2c1 [Example 19, (E)-2-(4-(3-(2,7-dimethoxy-quinolin-3-yl)-3-oxo-1-propen-1-yl)-2,6-dimethylphenoxy)-2-methylpropionic acid]
- EC50 [5]: 796 nM
- EC50 [2]: 1.33 nM
- IC50 [4]: > 10000 nM

SMILES: Cc1cc(/C=C/C(=O)c2cc3ccccc3nc2N2CCOCC2)cc(C)c1OC(C)(C)C(=O)O [Example 11, (E)-2-(4-(3-(2-(morpholin-4-yl)quinolin-3-yl)-3-oxo-1-propen-1-yl)-2,6-dimethylphenoxy)-2-methylpropionic acid]
- EC50 [5]: 4430 nM
- EC50 [2]: 585 nM

SMILES: COc1ccc2cc(C(=O)/C=C/c3cc(C)c(OC(C)(C)C(=O)O)c(C)c3)c(Cl)nc2c1 [Example 18, (E)-2-(4-(3-(2-chloro-7-methoxy-quinolin-3-yl)-3-oxo-1-propen-1-yl)-2,6-dimethylphenoxy)-2-methylpropionic acid]
- EC50 [5]: 810 nM
- EC50 [2]: 8.62 nM
- IC50 [4]: > 10000 nM

SMILES: COc1ccc2nc(Cl)c(C(=O)/C=C/c3cc(C)c(OC(C)(C)C(=O)O)c(C)c3)cc2c1 [Example 20, (E)-2-(4-(3-(2-chloro-6-methoxy-quinolin-3-yl)-3-oxo-1-propen-1-yl)-2,6-dimethylphenoxy)-2-methylpropionic acid]
- EC50 [2]: 460 nM

SMILES: CSc1nc2ccccc2cc1C(=O)/C=C/c1cc(C)c(OC(C)(C)C(=O)O)c(C)c1 [Example 17, (E)-2-(4-(3-(2-methylthioquinolin-3-yl)-3-oxo-1-propen-1-yl)-2,6-dimethylphenoxy)-2-methylpropionic acid]
- EC50 [2]: 123 nM
- IC50 [4]: > 10000 nM

SMILES: Cc1cc(/C=C/C(=O)c2cnc3ccccc3c2)cc(C)c1OC(C)(C)C(=O)O [Example 3, (E)-2-(4-(3-(quinolin-3-yl)-3-oxo-1-propen-1-yl)-2,6-dimethylphenoxy)-2-methylpropionic acid]
- EC50 [2]: 1930 nM
- IC50 [4]: > 10000 nM

SMILES: COCCOc1nc2ccccc2cc1C(=O)/C=C/c1cc(C)c(OC(C)(C)C(=O)O)c(C)c1 [Example 6, (E)-2-(4-(3-(2-(2-methoxyethoxy)quinolin-3-yl)-3-oxo-1-propen-1-yl)-2,6-dimethylphenoxy)-2-methylpropionic acid]
- CC50 at 3 days [1]: > 10000 nM
- EC50 [5]: 374 nM
- EC50 [2]: 52.8 nM
- IC50 [4]: > 10000 nM
- CC50 at 3 days [3]: > 10000 nM

SMILES: COc1ccc2nc(OC)c(C(=O)/C=C/c3cc(C)c(OC(C)(C)C(=O)O)c(C)c3)cc2c1 [Example 21, (E)-2-(4-(3-(2,6-dimethoxy-quinolin-3-yl)-3-oxo-1-propen-1-yl)-2,6-dimethylphenoxy)-2-methylpropionic acid]
- EC50 [5]: 675 nM
- EC50 [2]: 5.4 nM
- IC50 [4]: > 10000 nM
